Test results: the supplement of paper PMC10307832

Tests used:
Assay in all cases: relative viability (nuclei count vs DMSO), 5 days (fraction); higher = more cells survive
HCC-366 = test system: HCC-366
How it was run: (§1)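 Lung cancer cell lines were pin-tool dosed in 1536-well plates on the day after seeding, with either a lone drug or a fixed anchor-drug dose plus five library-drug doses (not always all listed) in √10 steps. Nuclei were counted on 4× images after 5 days. Relative viability is the ratio of treated-well to vehicle-well nuclei counts, with each value a median of duplicate plates.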

EPLC-272H = test system: EPLC-272H
How it was run: as §1

LU99A = test system: LU99A
How it was run: as §1

NCI-H2085 = test system: NCI-H2085
How it was run: as §1

NCI-H2126 = test system: NCI-H2126
How it was run: as §1

SW 1573 = test system: SW 1573
How it was run: as §1

RERF-LC-KJ = test system: RERF-LC-KJ
How it was run: as §1

LXF-289 = test system: LXF-289
How it was run: as §1

HCC-827 = test system: HCC-827
How it was run: as §1

NCI-H1666 = test system: NCI-H1666
How it was run: as §1

HCC-78 = test system: HCC-78
How it was run: as §1

HCC-44 = test system: HCC-44
How it was run: as §1

NCI-H23 = test system: NCI-H23
How it was run: as §1

ChaGo-K-1 = test system: ChaGo-K-1
How it was run: as §1

EMC-BAC-2 = test system: EMC-BAC-2
How it was run: as §1

NCI-H2405 = test system: NCI-H2405
How it was run: as §1

LOU-NH91 = test system: LOU-NH91
How it was run: as §1

SK-LU-1 = test system: SK-LU-1
How it was run: as §1

LK-2 = test system: LK-2
How it was run: as §1

NCI-H3122 = test system: NCI-H3122
How it was run: as §1

NCI-H1975 = test system: NCI-H1975
How it was run: as §1

COc1cc(N2CCC(C(N)=O)CC2)ccc1Nc1nc(N)c(Cl)c(Nc2ccccc2S(=O)(=O)C(C)C)n1 [HG-5-88-01] + CC1(C)CCC(c2ccc(Cl)cc2)=C(CN2CCN(c3ccc(C(=O)NS(=O)(=O)c4ccc(N[C@H](CCN5CCOCC5)CSc5ccccc5)c(S(=O)(=O)C(F)(F)F)c4)cc3)CC2)C1 [Navitoclax] (partner 0.5 µM)
relative viability (HCC-366; first compound 0.04 µM): 0.952
relative viability (HCC-366; first compound 0.1265 µM): 1.04
relative viability (HCC-366; first compound 0.4 µM): 0.79
relative viability (HCC-366; first compound 1.265 µM): 1.02
relative viability (HCC-366; first compound 4 µM): 1.29
relative viability (EPLC-272H; first compound 0.04 µM): 1.22
relative viability (EPLC-272H; first compound 0.1265 µM): 1.05
relative viability (EPLC-272H; first compound 0.4 µM): 1.28
relative viability (EPLC-272H; first compound 1.265 µM): 0.982
relative viability (EPLC-272H; first compound 4 µM): 0.27
relative viability (LU99A; first compound 0.04 µM): 0.781
relative viability (LU99A; first compound 0.1265 µM): 0.96
relative viability (LU99A; first compound 0.4 µM): 0.75
relative viability (LU99A; first compound 1.265 µM): 0.764
relative viability (LU99A; first compound 4 µM): 0.996
relative viability (NCI-H2085; first compound 0.04 µM): 1.2
relative viability (NCI-H2085; first compound 0.1265 µM): 1.26
relative viability (NCI-H2085; first compound 0.4 µM): 1.06
relative viability (NCI-H2085; first compound 1.265 µM): 0.873
relative viability (NCI-H2085; first compound 4 µM): 1.13
relative viability (NCI-H2126; first compound 0.04 µM): 0.88
relative viability (NCI-H2126; first compound 0.1265 µM): 0.882
relative viability (NCI-H2126; first compound 0.4 µM): 0.753
relative viability (NCI-H2126; first compound 1.265 µM): 0.84
relative viability (NCI-H2126; first compound 4 µM): 0.794
relative viability (SW 1573; first compound 0.04 µM): 0.952
relative viability (SW 1573; first compound 0.1265 µM): 1.05
relative viability (SW 1573; first compound 0.4 µM): 0.9
relative viability (SW 1573; first compound 1.265 µM): 0.996
relative viability (SW 1573; first compound 4 µM): 0.863
relative viability (RERF-LC-KJ; first compound 0.04 µM): 1.05
relative viability (RERF-LC-KJ; first compound 0.1265 µM): 0.846
relative viability (RERF-LC-KJ; first compound 0.4 µM): 0.954
relative viability (RERF-LC-KJ; first compound 1.265 µM): 0.941
relative viability (RERF-LC-KJ; first compound 4 µM): 0.5
relative viability (LXF-289; first compound 0.04 µM): 0.937
relative viability (LXF-289; first compound 0.1265 µM): 0.979
relative viability (LXF-289; first compound 0.4 µM): 0.972
relative viability (LXF-289; first compound 1.265 µM): 1.01
relative viability (LXF-289; first compound 4 µM): 1.02
relative viability (HCC-827; first compound 0.04 µM): 0.997
relative viability (HCC-827; first compound 0.1265 µM): 1.04
relative viability (HCC-827; first compound 0.4 µM): 1.03
relative viability (HCC-827; first compound 1.265 µM): 1.02
relative viability (HCC-827; first compound 4 µM): 0.723
relative viability (NCI-H1666; first compound 0.04 µM): 1.14
relative viability (NCI-H1666; first compound 0.1265 µM): 1.01
relative viability (NCI-H1666; first compound 0.4 µM): 1.01
relative viability (NCI-H1666; first compound 1.265 µM): 0.877
relative viability (NCI-H1666; first compound 4 µM): 0.603
relative viability (HCC-78; first compound 0.04 µM): 0.749
relative viability (HCC-78; first compound 0.1265 µM): 0.555
relative viability (HCC-78; first compound 0.4 µM): 0.363
relative viability (HCC-78; first compound 1.265 µM): 0.158
relative viability (HCC-78; first compound 4 µM): 0.297
relative viability (HCC-44; first compound 0.04 µM): 1.07
relative viability (HCC-44; first compound 0.1265 µM): 1.03
relative viability (HCC-44; first compound 0.4 µM): 0.77
relative viability (HCC-44; first compound 1.265 µM): 0.922
relative viability (HCC-44; first compound 4 µM): 0.846
relative viability (NCI-H23; first compound 0.04 µM): 0.945
relative viability (NCI-H23; first compound 0.1265 µM): 0.932
relative viability (NCI-H23; first compound 0.4 µM): 0.809
relative viability (NCI-H23; first compound 1.265 µM): 0.815
relative viability (NCI-H23; first compound 4 µM): 0.659
relative viability (ChaGo-K-1; first compound 0.04 µM): 1.05
relative viability (ChaGo-K-1; first compound 0.1265 µM): 1.09
relative viability (ChaGo-K-1; first compound 0.4 µM): 0.726
relative viability (ChaGo-K-1; first compound 1.265 µM): 1.12
relative viability (ChaGo-K-1; first compound 4 µM): 0.762
relative viability (EMC-BAC-2; first compound 0.04 µM): 1.11
relative viability (EMC-BAC-2; first compound 0.1265 µM): 1.23
relative viability (EMC-BAC-2; first compound 0.4 µM): 1.12
relative viability (EMC-BAC-2; first compound 1.265 µM): 1.05
relative viability (EMC-BAC-2; first compound 4 µM): 1.22
relative viability (NCI-H2405; first compound 0.04 µM): 0.99
relative viability (NCI-H2405; first compound 0.1265 µM): 1.03
relative viability (NCI-H2405; first compound 0.4 µM): 0.825
relative viability (NCI-H2405; first compound 1.265 µM): 0.319
relative viability (NCI-H2405; first compound 4 µM): 0.784
relative viability (LOU-NH91; first compound 0.04 µM): 0.72
relative viability (LOU-NH91; first compound 0.1265 µM): 0.693
relative viability (LOU-NH91; first compound 0.4 µM): 0.605
relative viability (LOU-NH91; first compound 1.265 µM): 0.378
relative viability (LOU-NH91; first compound 4 µM): 0.468
relative viability (SK-LU-1; first compound 0.04 µM): 0.997
relative viability (SK-LU-1; first compound 0.1265 µM): 0.99
relative viability (SK-LU-1; first compound 0.4 µM): 0.791
relative viability (SK-LU-1; first compound 1.265 µM): 0.98
relative viability (SK-LU-1; first compound 4 µM): 0.791
relative viability (LK-2; first compound 0.04 µM): 0.872
relative viability (LK-2; first compound 0.1265 µM): 1.03
relative viability (LK-2; first compound 0.4 µM): 0.805
relative viability (LK-2; first compound 1.265 µM): 0.377
relative viability (LK-2; first compound 4 µM): 0.541
relative viability (NCI-H3122; first compound 0.04 µM): 0.905
relative viability (NCI-H3122; first compound 0.1265 µM): 0.611
relative viability (NCI-H3122; first compound 0.4 µM): 0.444
relative viability (NCI-H3122; first compound 1.265 µM): 0.198
relative viability (NCI-H3122; first compound 4 µM): 0.255
relative viability (NCI-H1975; first compound 0.04 µM): 1.13
relative viability (NCI-H1975; first compound 0.1265 µM): 1.15
relative viability (NCI-H1975; first compound 0.4 µM): 1.09
relative viability (NCI-H1975; first compound 1.265 µM): 0.858
relative viability (NCI-H1975; first compound 4 µM): 0.352
